Test results taken from ChEMBL document CHEMBL1146481, “Rediocides B-E, potent insecticides from Trigonostemon reidioides” (2004).

System: Ctenocephalides felis
Assay: Insecticidal activity against Ctenocephalides felis by anti-flea artificial membrane feeding system
Type: functional

Structure (SMILES) | LD90 [ppm]
CC(C)CC(=O)O[C@H]1/C=C/C=C/C(=O)O[C@H]2[C@@H](C)C[C@@H]3[C@]2(O)[C@H](O)[C@@]2(CO)O[C@H]2[C@H]2[C@H]4OC5(c6ccccc6)O[C@@H]([C@@H](C)[C@@]23O5)[C@@]4(O)[C@](C)(O)C[C@H]2CC[C@H]1[C@H]2C [REDIOCIDE A] | 0.25
CC(C)CC(=O)O[C@H]1/C=C/C=C/C(=O)O[C@H]2[C@@H](C)C[C@@H]3[C@]2(O)[C@H](O)[C@@]2(CO)O[C@H]2[C@H]2[C@H]4OC5(c6ccccc6)O[C@@H]([C@@H](C)[C@@]23O5)[C@@]4(O)[C@](C)(O)CC2CCC1CC2 [REDIOCIDE B] | 0.25
C[C@H]1[C@@H]2CC[C@@H]1[C@@H](OC(=O)c1ccccc1)/C=C/C=C/C(=O)O[C@H]1[C@@H](C)C[C@@H]3[C@]1(O)[C@H](O)[C@@]1(CO)O[C@H]1[C@H]1[C@H]4OC5(c6ccccc6)O[C@@H]([C@@H](C)[C@@]13O5)[C@@]4(O)[C@](C)(O)C2 [REDIOCIDE C] | 0.5
C[C@@H]1[C@@H]2OC3(c4ccccc4)O[C@@H]4[C@@H]5[C@@H]6O[C@]6(C)[C@@H](O)[C@@]6(O)[C@@H](C[C@H](C)[C@@H]6OC(=O)/C=C/[C@@H]6O[C@H]6[C@H](OC(=O)c6ccccc6)C6CCC(CC6)C[C@@](C)(O)[C@@]42O)[C@]51O3 [REDIOCIDE D] | 0.25
CC(C)CC(=O)O[C@H]1/C=C/C=C/C(=O)O[C@H]2CC[C@@H]3[C@]2(O)[C@H](O)[C@@]2(CO)O[C@H]2[C@H]2[C@H]4OC5(c6ccccc6)O[C@@H]([C@@H](C)[C@@]23O5)[C@@]4(O)[C@](C)(O)C[C@H]2CC[C@H]1[C@H]2C [REDIOCIDE E] | 0.5
